Assay results: patent US20250076286A1, “GENERATION OF NEURAL ORGANIZER ORGANOIDS AND MIDLINE ASSEMBLOIDS FROM HUMAN PLURIPOTENT STEM CELLS” (The Board of Trustees of the Leland Stanford Junior …, priority 2022, published 2025)

Legend:
Type in all cases: cell-based, human
[1] = system: hiPSC cell-derived floor plate organoids (hFpO); assay: Quantification of FOXA2 positive floor plate cells by immunofluorescence microscopy; details: hFpO induced with 5 μM SAG day 1 to day 6 plus dual SMAD inhibitors, EGF, FGF2, RA; controls without SAG showed no induction
Description: For the generation of 3D floor plate organoids, hiPSC cells were incubated with Accutase® (Innovative Cell Technologies, AT104) at 37° C. for 7 min and dissociated into single cells. To obtain uniformly sized organoids, AggreWell-800 (STEMCELL Technologies, 34815) containing 300 microwells was used. Approximately 3×10^6 single cells were added per AggreWell-800 well in Essential 8 medium supplemented with the ROCK inhibitor Y27632 (10 mM, Selleckchem, S1049), centrifuged at 100 g for 3 min to capture the cells in the microwells, and incubated at 37° C. with 5% CO2. After 24 h, organoids consisting of approximately 10,000 cells were collected from each microwell by pipetting medium in the well up and down with a cut P1000 pipet tip and transferred into ultra-low attachment plastic dishes (Corning, 3262) in 20% knockout serum medium (KOSR) supplemented with two SMAD pathway inhibitors dorsomorphin (2.5 mM, Sigma-Aldrich, P5499) and SB-431542 (10 mM, R&D Systems, 1614) for the first 5 days.
For floor plate induction: SAG, FGF2, and retinoic acid was added to the medium starting on day 1 and CHIR was added to the media beginning on day 2 until day 7. The 20% KOSR medium was changed every day and supplemented with the respective small molecules and growth factors (FIG. 1). […]

[2] = system: hFpO-hNtO midline assembloids; assay: hFpO-induced ventralization of hNtO in midline assembloids (immunofluorescence staining)
Description: Cryoprotection and immunofluorescence staining. hFpO, hNtO and midline assembloids were fixed in 4% paraformaldehyde (PFA)/phosphate buffered saline (PBS) for 1-2 hours on a rocker at 4° C. They were then washed in PBS and transferred to 30% sucrose/PBS overnight until the organoids/assembloids sink in the solution. Subsequently, they were rinsed in optimal cutting temperature (OCT) compound (Tissue-Tek OCT Compound 4583, Sakura Finetek) and embedded. For immunofluorescence staining, 20 μm-thick sections were cut using a Leica Cryostat (Leica, CM1850). Cryosections were blocked in 0.3% Triton X-100 (Millipore Sigma, T9284-100ML), 1% BSA diluted in PBS for 1 h at room temperature. The sections were then incubated overnight at 4° C. with primary antibodies diluted in PBS containing 1% BSA, 0.1% Triton X-100. Samples were then rinsed 3× and incubated for 30 minutes in 1% BSA, 0.1% Triton X-100. Cryosections were then incubated with secondary antibodies in block 1 h. The following primary antibodies were used for staining: anti-FOXA2 (rabbit, Abcam), anti-NKX2.2 (mouse, DSHB, sc-517261), anti-NKX6.1 (mouse, DSHB), LMX1A (rabbit, HPA030088, Atlas antibodies), TFAP2A. Alexa Fluor dyes (Life Technologies) were used at 1:1000 dilution, and nuclei were visualized with Hoechst 33258 (Life Technologies, H3549). Cryosections were mounted for microscopy on glass slides using Aquamount (Polysciences, 18606), and imaged on a Zeiss M1 Axioscope or EVOS microscope. Images were processed in Fiji (NIH).
Generation of neural tube organoids or organoids (hNtO) and midline assembloids (hNtO-hFpO). To generate hNtO, organoids were generated using the Aggrewell method previously described. The 20% KOSR medium was changed every day and supplemented with dorsomorphin and SB-431542 for 5 Days. On day 6 in suspension, the organoids were transferred to 20% KOSR supplemented with EGF, FGF2, CHIR and retinoic acid. On day 7, hNtO were dissociated and seeded as previously described in ultra-low attachment 96 well plates. […]

[3] = system: dorsal interneuron axon extension in dhSpOs; assay: Axon extension response of dhSpO dorsal interneurons to purified FP-secreted proteins; details: for sensitivity to repulsive axon guidance cue / chemorepulsion: ROBO3 KO neurites
Description: Differentiation of dorsal human spinal organoids (hSpO) and midline assembloids (dhSpO-hFpO-dhSpO) to study crossing of commissural projections. Aggregates of hiPSC cells were generated and collected as previously described in hFpO and hNtO protocols and transferred to poly-HEMA coated 10 cm dishes in Essential 6 medium (Thermo Fisher Scientific, A1516401) supplemented with two SMAD pathway inhibitors-dorsomorphin (2.5 mM, Sigma-Aldrich, P5499) and SB-431542 (10 mM, R&D Systems, 1614). For the first 5 d, Essential 6 medium was changed every day and supplemented with dorsomorphin and SB-431542. To generate hSpO, on day 6 in suspension the organoids were transferred to neural medium containing Neurobasal™-A Medium (Thermo Fisher Scientific, 10888022), B-27™ Supplement, minus vitamin A (Thermo Fisher Scientific, 12587010), GlutaMAX™ Supplement (1:100, Thermo Fisher Scientific, 35050079), Penicillin-Streptomycin (1:100, Thermo Fisher Scientific, 15070063), and supplemented with EGF, CHIR and RA. From day 19, to promote differentiation of the neural progenitors into neurons, the neural medium was supplemented with brain-derived neurotrophic factor (BDNF; 20 ng/ml, PeproTech, 450-02), IGF, AA, and 5′-cyclic monophosphate sodium salt (cAMP; 100 mM, Millipore Sigma, D0627). From this point on medium was changed every other day.
To validate the functionality of floor plate mechanisms that coordinate midline crossing, =isogenic KO hiPS cell lines targeting ROBO3 (an essential gene for midline crossing) with the CRISPR/Cas9 system were generated. Three sgRNAs targeting an early exon of a specific gene were designed and synthesized by Synthego to induce one deletion. Human iPSCs were dissociated with accutase and 0.5 million cells were mixed with 300 pmol sgRNAs and 40 pmol Cas9 protein (Synthego, SpCas9 2NLS Nuclease ([…])). Nucleofection was performed using the P3 Primary Cell 4D-NucleofectorTMX Kit L (Lonza, V4XP-3032), a 4D-nucleofector core unit and the X unit (Lonza) (program CA-137). […]

[4] = cyclopamine added the same day of fusion and in subsequent feeds, hFpO-hNtO assembloid

Molecule: CNC1CCC(N(Cc2cccc(-c3ccncc3)c2)C(=O)c2sc3ccccc3c2Cl)CC1 (stereo not shown) [SAG]
- percent of positive floor plate cells (FOXA2 marker) [1]: 90-99%

Molecule: CC1=C2C[C@H]3[C@@H](CC=C4C[C@@H](O)CC[C@@]43C)[C@@H]2CC[C@]12O[C@@H]1C[C@H](C)CN[C@H]1[C@H]2C [cyclopamine]
- FOXA2 expression in hFpO [2, 4]: abolished
- NKX2.2 induction in hNtO [2, 4]: abolished
- hFpO induced ventralization (NKX2.2, FOXA2, NKX6.1) ([2]; in the presence of cyclopamine, FIG. 5E-G): completely abolished

B1: SLIT-2: repulsive axon guidance cue, purified FP-secreted protein (protein, UniProt O94813 31-1529, looked up)
Slit homolog 2 protein: QCSCSGSTVDCHGLALRSVPRNIPRNTERLDLNGNNITRITKTDFAGLRHLRVLQLMENKISTIERGAFQDLKELERLRLNRNHLQLFPELLFLGTAKLYRLDLSENQIQAIPRKAFRGAVDIKNLQLDYNQISCIEDGAFRALRDLEVLTLNNNNITRLSVASFNHMPKLRTFRLHSNNLYCDCHLAWLSDWLRQRPRVGLYTQCMGPSHLRGHNVAEVQKREFVCSGHQSFMAPSCSVLHCPAACTCSNNIVDCRGKGLTEIPTNLPETITEIRLEQNTIKVIPPGAFSPYKKLRRIDLSNNQISELAPDAFQGLRSLNSLVLYGNKITELPKSLFEGLFSLQLLLLNANKINCLRVDAFQDLHNLNLLSLYDNKLQTIAKGTFSPLRAIQTMHLAQNPFICDCHLKWLADYLHTNPIETSGARCTSPRRLANKRIGQIKSKKFRCSAKEQYFIPGTEDYRSKLSGDCFADLACPEKCRCEGTTVDCSNQKLNKIPEHIPQYTAELRLNNNEFTVLEATGIFKKLPQLRKINFSNNKITDIEEGAFEGASGVNEILLTSNRLENVQHKMFKGLESLKTLMLRSNRITCVGNDSFIGLSSVRLLSLYDNQITTVAPGAFDTLHSLSTLNLLANPFNCNCYLAWLGEWLRKKRIVTGNPRCQKPYFLKEIPIQDVAIQDFTCDDGNDDNSCSPLSRCPTECTCLDTVVRCSNKGLKVLPKGIPRDVTELYLDGNQFTLVPKELSNYKHLTLIDLSNNRISTLSNQSFSNMTQLLTLILSYNRLRCIPPRTFDGLKSLRLLSLHGNDISVVPEGAFNDLSALSHLAIGANPLYCDCNMQWLSDWVKSEYKEPGIARCAGPGEMADKLLLTTPSKKFTCQGPVDVNILAKCNPCLSNPCKNDGTCNSDPVDFYRCTCPYGFKGQDCDVPIHACISNPCKHGGTCHLKEGEEDGFWCICADGFEGENCEVNVDDCEDNDCENNSTCVDGINNYTCLCPPEYTGELCEEKLDFCAQDLNPCQHDSKCILTPKGFKCDCTPGYVGEHCDIDFDDCQDNKCKNGAHCTDAVNGYTCICPEGYSGLFCEFSPPMVLPRTSPCDNFDCQNGAQCIVRINEPICQCLPGYQGEKCEKLVSVNFINKESYLQIPSAKVRPQTNITLQIATDEDSGILLYKGDKDHIAVELYRGRVRASYDTGSHPASAIYSVETINDGNFHIVELLALDQSLSLSVDGGNPKIITNLSKQSTLNFDSPLYVGGMPGKSNVASLRQAPGQNGTSFHGCIRNLYINSELQDFQKVPMQTGILPGCEPCHKKVCAHGTCQPSSQAGFTCECQEGWMGPLCDQRTNDPCLGNKCVHGTCLPINAFSYSCKCLEGHGGVLCDEEEDLFNPCQAIKCKHGKCRLSGLGQPYCECSSGYTGDSCDREISCRGERIRDYYQKQQGYAACQTTKKVSRLECRGGCAGGQCCGPLRSKRRKYSFECTDGSSFVDEVEKVVKCGCTRCVS
- sensitivity to repulsive axon guidance cue / chemorepulsion [3]: increased sensitivity and chemorepulsion
- sensitivity to repulsive axon guidance cue / chemorepulsion ([3]; listed as Slit-2): Increased sensitivity
- sensitivity to repulsive axon guidance cue ([3]; wildtype dorsal interneurons): largely insensitive
